Measurements reported in patent US8759363B2, “Quinazoline-based T cell proliferation inhibitors” (Yissum Research Development Company of the Hebrew …, priority 2010, dated 2014).

What was measured:
PBMC = PBMC proliferation, BrdU incorporation; type: cell-based, human; settings: Homo sapiens; ConA-stimulated PBMC, BrdU uptake; nM ± SD; read-out: IC50 PBMC proliferation inhibition
Method: Blood samples were taken from healthy donors and loaded on a Ficoll density gradient to purify the PBMC population. T cells were purified by human anti-CD3 using an autoMACS instrument (Miltenyi Biotec, Bergisch-Gladbach, Germany), according to the manufacturer's instructions. The identity of T cells was confirmed by flow cytometry, as they stained positive for CD3. Cells were stimulated with ConA (10 μg/ml), ODN2006 (0.5 μg/ml; Enzo Life Sciences), or LPS (50 μg/ml; Sigma-Aldrich, Steinheim, Germany), for 72 h in the presence of the inhibitor, and their proliferation was measured in the BrdU incorporation assay as will be later described.
(§1) Cells were depleted of fetal calf serum (FCS) for 12 hours. They were then stimulated to proliferate by addition of ConA (10 μg/ml) for PBMC from healthy individuals and for Jurkat cells, FCS (10%) for HEK293 and A375 cells, PDGF (30 ng/ml) for NIH 3T3 cells, and EGF (30 ng/ml) for MDA-MB-231, Cells (1×10^5) were cultured in 96-well plates for 3 days in the presence or absence of inhibitors at the concentrations specified in the text. Each condition was tested in duplicate wells.
(§2) Proliferation was assessed by BrdU incorporation using a colorimetric ELISA kit (Roche, Germany). Subsequent to labeling with 10 μM BrdU, DNA was denatured and the cells were incubated with anti-BrdU-POD, prior to the addition of colorimetric substrate (TMB). The reaction product was quantified by measuring absorbance at 450 nm in an ELISA plate reader (ELx800 BIO-TEK Instruments Inc.).
(§3) Since we were not prejudiced towards any specific protein kinase, we used a biological assay for T cell proliferation. We tested our libraries for inhibition of proliferation of PBMC and Jurkat cells (Table 3). Cell proliferation was measured by BrdU uptake. […] PBMC cells were stimulated by a non-specific T cell mitogen, Concanavalin A (ConA). All of the compounds that were tested inhibited proliferation at micromolar or sub-micromolar concentrations.

Jurkat cells = assay: Jurkat cell proliferation, BrdU incorporation; type: cell-based, human; settings: Homo sapiens, Jurkat, BrdU uptake; nM ± SD; read-out: IC50 Jurkat cells proliferation inhibition
Method: as §1, §2, §3

[1] = system: IL-2 secretion by 2C splenocytes stimulated by irradiated BALB/c splenocytes; assay: IL-2 levels in MLR supernatants; type: cell-based, mouse; settings: 24, 48 and 72 h MLR; compound 2 up to 1 μM
Method: In the mixed lymphocyte reaction, stimulator cells cause responder cells to proliferate, owing to alloreactivity [Reich-Zeliger et al., 2004]. Splenocytes from 2c mice were stimulated by irradiated splenocytes from BALB/c mice in the presence of the evaluated compound at the concentrations specified. Cultures were incubated for 72 hours in 96-well plates.
Jurkat or PBMC cells were treated for 12 h with 1 μM, 0.5 μM or no inhibitor. Cells (1×10^6) were plated in 24-well plates (Nunc) and stimulated by C305 (dilution 1:500), anti-CD28 (1:100), PMA (50 ng/ml) or ionomycin (1 μM) for 12 h. Alternately, cells were stimulated for 24, 48 and 72 h in MLR. After stimulation cells were centrifuged at 130×g for 5 minutes at room temperature.
Supernatants were collected and IL-2 was assayed using the IL-2 ELISA kit (BioSource International USA, KH0022) according to the manufacturer's instructions. Absorbance was read at 450 nm in an ELISA plate reader (ELx800 BIO-TEK Instruments Inc.).
In vivo, T cells are stimulated by neighboring cells. In order to test the effect of 2 on cell-stimulated IL-2 secretion, the supernatants of splenocytes after 24, 48 and 72 h MLR were collected and analyzed for their IL-2 levels (FIG. 5C). […] At higher concentrations, no viable cells remained.

[2] = system: CD8+ (2C) and CD4+ (TEA) T cells; assay: MLR, double-positive CD8+1B2+ (2C) or CD4+/Va2+ (TEA) effector cells by FACS; type: cell-based, mouse; settings: 72 h MLR
Source text: Mice used included male and female 6- to 12-week-old CB6/F1 mice, obtained from the Roscoe B. Jackson Memorial Laboratory (The Jackson Laboratory, Bar Harbor, Me., http://www.jax.org). A breeding pair of transgenic (Tg) H-2b mice expressing the T-cell antigen receptor (TCR) 1B2 from the CD8+ clone 2C with specificity for H-2Ld was kindly provided by Janko Nikolic-Zugic (Memorial Sloan-Kettering Cancer Center, New York, http://www.mskcc.org). A breeding pair of Tg H-2b mice expressing the TCR from the CD4+ clone known as TEA with specificity for I-Ead allopeptide, cross-presented by host APC and bound to I-Ab and was kindly provided by Alexander Y. Rudensky (University of Washington, Seattle). I-Ead allopeptide corresponds to the positions 52 to 68 from the alpha-chain of I-E class II molecules and is expressed in all APCs from H-2b/I-E+ strains (CB6F1-hybrid of C57BL/6 and Balb/c). C57BL/6 mice are H-2b but I-E−, whereas BALB/c are H-2d and I-E+, and therefore their F1 hybrids are H-2b/1-E+ and able to directly present antigen.
Responder 2C splenocytes were harvested, and the cell suspensions were treated with Tris-buffered ammonium chloride to remove RBC. […] On day 3, the MLR cultures were harvested, and analyzed by FACS for CD4 or CD8 levels.
FACS analysis was performed using a modified FACScan (BD Biosciences, Mountain View, Calif.). Fluorescence data were collected during one minute. […]

2C (stimulated) cells = assay: MLR with resting control cells, stimulated 2C cells; type: cell-based, mouse; settings: 0.5 μM, 72 h MLR with IL-7; no inhibitor 3805
Source text: (§4) The aim of this test was to determine whether 2 affects only the proliferating cells or there is a general mechanism affecting all cell numbers. For this purpose we mixed 3 cell types: […]: BALB/c, 2C and OT1; […]: CB6F1, TEA and OT2. The OT1 and OT2 are splenocytes that were isolated from OT1 and OT2 mice (Jackson Laboratories, Bar Harbor, Me.),
(§5) Thus, the ability to monitor the fate of proliferation and resting cells by FACS was enabled due to the use of the MLR described above for CD4+ and CD8+ and the addition of OT2 and OT1 splenocytes, respectively.
(§6) Proliferating cells often secrete cytokines that induce survival of neighbouring cells; since the proliferation was expected to be inhibited we added 50 ng/ml of IL-7. This concentration is sufficient to keep the cells alive, but not to induce proliferation.
(§7) Irradiated Balb splenocytes were incubated for 72 h with 2C, and OT1 splenocytes in the presence of IL-7 W/O inhibitor.
(§8) The CD4+ and CD8+ were stimulated to proliferate, whereas in the absence of specific stimuli the OT1 and OT2 cell populations were resting, and theses cells were kept alive by the administration of IL-7. […] The number of 2C and OT1 cells that were treated with 0.5 μM 2 was 286 and 1148, respectively, while the number of 2C and OT1 cells that were treated with 0.5 μM 21 (control) was 4767 and 2468, respectively. This is depicted as a bar-graph in FIG. 8C.

OT1 (resting) cells = assay: MLR with resting control cells, resting OT1 cells; type: cell-based, mouse; settings: 0.5 μM, 72 h MLR with IL-7; no inhibitor 2459
Source text: as §4, §5, §6, §7, §8

TEA (stimulated) cells = assay: MLR with resting control cells, stimulated TEA cells; type: cell-based, mouse; settings: 0.5 μM, 72 h MLR with IL-7; no inhibitor 3850
Source text: as §4, §5, §6
(§9) The number of TEA and OT2 cells that were treated with 0.5 μM 2 was 1452 and 826, respectively, while the number of 2C and OT1 cells that were treated with 0.5 μM 21 was 3003 and 903, respectively. This is depicted as a bar-graph in FIG. 9C.

OT2 (resting) cells = assay: MLR with resting control cells, resting OT2 cells; type: cell-based, mouse; settings: 0.5 μM, 72 h MLR with IL-7; no inhibitor 1025
Source text: as §4, §5, §6, §9

For `Cc1ccc(Nc2nc(-c3cc(O)c(O)c(O)c3)nc3ccccc23)cc1` [Compound 21, 5-(4-(p-tolylamino)quinazolin-2-yl)benzene-1,2,3-triol], the IC50 (PBMC) was 850 ± 0.21 nM, the IC50 (Jurkat cells) was 850 ± 0.21 nM and the “IL-2 levels in MLR supernatants” value [1] was “decreased after 72 h”. The “percentage of double-positive effector cells” value [2] was “no reduction was observed”, the “number of 2C (stimulated) cells” value (2C (stimulated) cells) was 4767 and the “number of OT1 (resting) cells” value (OT1 (resting) cells) was 2468. The “number of TEA (stimulated) cells” value (TEA (stimulated) cells) was 3003, the “number of OT2 (resting) cells” value (OT2 (resting) cells) was 903 and the melting point was > 250 °C.
